Laboratory results taken from patent publication US20260048051A1, “TREATMENT OF INFLAMMATORY BOWEL DISEASE” (Atomwise Inc., priority 2024, published 2026).
Where two headings read alike, the source gives them in different places.

Assay: Plasma and tissue distribution in SD rats
Format: in vivo
Conditions: for Tissue/Plasma Ratio (AUCinf) / Kp: SD rat; for Kp / AUC(0-t): rat; for Kp: oral, read-out: Tissue/Plasma Ratio (AUCinf); for AUC(0-t): read-out: AUClast; for AUC0-inf: read-out: AUCINF_obs
Text: The following Example describes the methods and data used to evaluate the tissue distribution of TYK2 inhibitors following the administration of either compound 1 or compound 2.
Thirty (30, 15/sex) SD rats supplied by Beijing Vital River Laboratory Animal Technology Co., Ltd. were used in this study. The animals were confirmed to be healthy before being assigned to the study. The room (s) was controlled and monitored for relative humidity (targeted mean range 40% to 70%) and temperature (targeted mean range 20° C. to 26° C.) with 15 or above air changes/hour. The room was on a 12-hour light/dark cycle except when interruptions were necessitated by study activities. Fresh drinking water (reverses osmosis) was available to all animals, ad libitum. Certified animal diet from certified vendor was available to all animals, ad libitum.
Animals were weighed prior to dose administration to calculate the actual dose volume. The body weights were in the range from 245.39 to 276.33 g for males and 182.29 to 215.69 g for females on the first dosing day. The animals in Groups 1 and 2 received a single oral gavage administration of test compound 1. Cage-side observations for the general health condition and appearance of the animal were performed before and after dosing and at each time point of sample collection. Unusual observations were recorded throughout the duration of the study.
The vehicle was 0.5% methyl cellulose (4000 cps) in water. The formulation was prepared according to the following steps. Group 1: 25.95 mg of compound 1 was weighed into a glass vial. 5000 μL of vehicle was added into the vial and stirred for 30 min at 1700 rpm to get a homogenous opaque suspension. 5000 μL of vehicle was added into the vial and stirred for 10 min at 1700 rpm to get a homogenous opaque suspension. 5000 μL+5000 μL+5000 μL+924 μL of vehicle was added into the vial and stirred for 10 min at 1700 rpm to get a homogenous opaque suspension. Group 2: 81.66 mg of compound 1 was weighed into a glass vial. 5000 μL of vehicle was added into the vial and stirred for 30 min at 1700 rpm to get a homogenous opaque suspension. 5000 μL of vehicle was added into the vial and stirred for 10 min at 1700 rpm to get a homogenous opaque suspension. 10 mL+10 mL+10 mL+20 mL+10 mL+10 mL+1580 μL of vehicle was added into the vial and stirred for 10 min at 1700 rpm to get a homogenous opaque suspension.
Blood (about 0.2 mL) was collected at each time point via jugular vein puncture from each study animal. The actual time for each sample collection was recorded. The acceptable deviations on sampling time were ±1 min for the time points pre-dose through 1 hour post-dose, and +5% of the nominal time for time points after 1 hour post-dose.
All blood samples were transferred into commercial tubes containing K2-EDTA. After blood was collected, the samples were placed on wet ice and processed for plasma within 60 minutes of collection by centrifugation at approximately 4° C., 3200×g for 10 minutes, and then quickly frozen over dry ice and kept at −60° C. or lower until LC-MS/MS analysis.
Following terminal blood sample collection, animals were conducted CO2 euthanasia, the chest and abdominal cavities were opened carefully lengthwise using scissors to expose the internal organs in preparation of tissue perfusion. A needle was used to puncture a small hole into the left ventricle of the heart, and then clamped with a hemostat. […] Fluid (cold 1×PBS) was infused until the liver pales (typically 2-3 minutes). Following perfusion, 14 kinds of tissues (spleen, bone marrow, adipose, brain, heart, kidney, liver, lung, skin, small intestine, large intestine, eye, gonads, and bladder) were collected from each animal, respectively.
Each tissue was weighed and homogenized on wet ice using homogenizing buffer (MeOH/15 mM PBS 1:2) at the ratio of 1:9 (1 g tissue with 9 mL buffer). The tissue homogenate was kept at −60° C. or lower until LC-MS/MS analysis. […]

[1] = female, Sprague-Dawley (SD), large intestine, F SD rat, L. Intestine
[2] = female, Sprague-Dawley (SD), F SD rat, Bone Marrow
[3] = female, Sprague-Dawley (SD), F SD rat, Brain
[4] = female, Sprague-Dawley (SD), F SD rat, Eye
[5] = female, Sprague-Dawley (SD), F SD rat, Heart
[6] = female, Sprague-Dawley (SD), F SD rat, Kidney
[7] = female, Sprague-Dawley, F SD rat, Adipose
[8] = female, Sprague-Dawley, F SD rat, Bladder
[9] = female, Sprague-Dawley, F SD rat, Spleen
[10] = female, small intestine, F SD rat, S. Intestine
[11] = male, Sprague-Dawley (SD), large intestine, M SD rat, L. Intestine
[12] = male, Sprague-Dawley (SD), M SD rat, Brain
[13] = male, Sprague-Dawley (SD), M SD rat, Eye
[14] = male, Sprague-Dawley (SD), M SD rat, Heart
[15] = male, Sprague-Dawley (SD), M SD rat, Kidney
[16] = male, Sprague-Dawley, M SD rat, Adipose
[17] = male, Sprague-Dawley, M SD rat, Bladder
[18] = male, Sprague-Dawley, M SD rat, Skin
[19] = male, Sprague-Dawley, M SD rat, Spleen
[20] = male, Sprague-Dawley, M SD rat, Testis
[21] = male, small intestine, M SD rat, S. Intestine

Structure (SMILES): C[C@@H](c1ccc(Nc2cc(Nc3ncc(F)cc3S(C)(=O)=O)ncn2)nc1)N1CC2(COC2)C1 [Compound 2, (S)—N^4-(5-(1-(2-oxa-6-azaspiro[3.3]heptan-6-yl)ethyl)pyridin-2-yl)-N^6-(5-fluoro-3-(methylsulfonyl)pyridin-2-yl)pyrimidine-4,6-diamine]
- HL_Lambda_z (F SD rat, Adipose): 2.78 h
- HL_Lambda_z (F SD rat, Bladder): 2.37 h
- HL_Lambda_z (F SD rat, Bone Marrow): 2.26 h
- HL_Lambda_z (F SD rat, Eye): 6.23 h
- HL_Lambda_z (F SD rat, Kidney): 2.34 h
- HL_Lambda_z (F SD rat, L. Intestine): 4.97 h
- HL_Lambda_z (F SD rat, Liver): 2.31 h
- HL_Lambda_z (F SD rat, Lung): 2.26 h
- HL_Lambda_z (F SD rat, Plasma): 3.20 h
- HL_Lambda_z (F SD rat, S. Intestine): 2.06 h
- HL_Lambda_z (F SD rat, Skin): 5.71 h
- HL_Lambda_z (F SD rat, Spleen): 2.29 h
- HL_Lambda_z (M SD rat, Bladder): 2.13 h
- HL_Lambda_z (M SD rat, Kidney): 3.28 h
- HL_Lambda_z (M SD rat, Plasma): 2.21 h
- HL_Lambda_z (M SD rat, S. Intestine): 2.05 h
- HL_Lambda_z (M SD rat, Skin): 2.43 h
- HL_Lambda_z (M SD rat, Spleen): 2.24 h
- Tissue/Plasma Ratio (AUCinf) (Kidney): 13
- Tissue/Plasma Ratio (AUCinf) (Large Intestine): 23
- Kp (Sprague-Dawley (SD), bone marrow / plasma, Bone Marrow): 9.6
- Kp (Sprague-Dawley, adipose, Adipose): 4.5
- Kp (Sprague-Dawley, bladder, Bladder): 8.7
- Kp (Sprague-Dawley, eye, Eye): 1.2
- Kp (Sprague-Dawley, kidney, Kidney): ~13
- Kp (Sprague-Dawley, large intestine, Large Intestine): ~23
- Kp (Sprague-Dawley, liver, Liver): 8.7
- Kp (Sprague-Dawley, lung, Lung): 7.1
- Kp (Sprague-Dawley, skin, Skin): 2.5
- Kp (Sprague-Dawley, small intestine, Small Intestine): 27
- Kp (Sprague-Dawley, spleen, Spleen): 12
- AUC(0-t) (female, SD, bone marrow, F SD rat, Bone Marrow): 38700 ng·h/mL
- AUC(0-t) (female, SD, lung, F SD rat, Lung): 29400 ng·h/mL
- AUC(0-t) (female, SD, ovaries, F SD rat, Ovaries): 4360 ng·h/mL
- AUC(0-t) (female, SD, plasma, F SD rat, Plasma): 4120 ng·h/mL
- AUC(0-t) (female, SD, skin, F SD rat, Skin): 8430 ng·h/mL
- AUC(0-t) (female, SD, small intestine, F SD rat, S. Intestine): 110000 ng·h/mL
- Tmax [1]: 120 min
- AUC(0-t) (female, Sprague-Dawley (SD), eye, F SD rat, Eye): 4880 ng·h/mL
- AUC(0-t) (female, Sprague-Dawley (SD), heart, F SD rat, Heart): 8990 ng·h/mL
- AUC(0-t) (female, Sprague-Dawley (SD), kidney, F SD rat, Kidney): 51800 ng·h/mL
- AUC(0-t) [1]: 95000 ng·h/mL
- Cmax [2]: 3080 ng/mL
- Tmax [2]: 30 min
- AUC0-inf [2]: 38300 ng·h/mL
- Cmax [3]: 104 ng/mL
- Tmax [3]: 30 min
- Cmax [4]: 700 ng/mL
- Tmax [4]: 30 min
- AUC0-inf [4]: 4910 ng·h/mL
- Cmax [5]: 2500 ng/mL
- Tmax [5]: 30 min
- Cmax [6]: 9870 ng/mL
- Tmax [6]: 30 min
- AUC0-inf [6]: 51800 ng·h/mL
- AUC(0-t) (female, Sprague-Dawley, adipose, F SD rat, Adipose): 18700 ng·h/mL
- AUC(0-t) (female, Sprague-Dawley, bladder, F SD rat, Bladder): 18600 ng·h/mL
- AUC(0-t) (female, Sprague-Dawley, spleen, F SD rat, Spleen): 43400 ng·h/mL
- Cmax [7]: 4310 ng/mL
- Tmax [7]: 30 min
- Cmax [8]: 2650 ng/mL
- Tmax [8]: 30 min
- AUC0-inf [8]: 18600 ng·h/mL
- Cmax [9]: 12500 ng/mL
- Tmax [9]: 30 min
- Cmax [10]: 24800 ng/mL
- Tmax [10]: 30 min
- AUC0-inf [10]: 130000 ng·h/mL
- Tmax (female, F SD rat, Liver): 30 min
- AUC0-inf (female, F SD rat, Liver): 35900 ng·h/mL
- Cmax (female, F SD rat, Lung): 3070 ng/mL
- Tmax (female, F SD rat, Lung): 30 min
- AUC0-inf (female, F SD rat, Lung): 29500 ng·h/mL
- Cmax (female, F SD rat, Ovaries): 1940 ng/mL
- Tmax (female, F SD rat, Ovaries): 30 min
- Cmax (female, F SD rat, Plasma): 625 ng/mL
- Tmax (female, F SD rat, Plasma): 480 min
- AUC0-inf (female, F SD rat, Plasma): 4140 ng·h/mL
- Cmax (female, F SD rat, Skin): 1180 ng/mL
- Tmax (female, F SD rat, Skin): 30 min
- AUC0-inf (female, F SD rat, Skin): 8450 ng·h/mL
- AUC(0-t) (male, SD, liver, M SD rat, Liver): 14700 ng·h/mL
- AUC(0-t) (male, SD, lung, M SD rat, Lung): 18200 ng·h/mL
- AUC(0-t) (male, SD, skin, M SD rat, Skin): 7820 ng·h/mL
- Cmax [11]: 7320 ng/mL
- Tmax [11]: 480 min
- AUC(0-t) (male, Sprague-Dawley (SD), bone marrow, M SD rat, Bone Marrow): 19600 ng·h/mL
- AUC(0-t) (male, Sprague-Dawley (SD), brain, M SD rat, Brain): 273 ng·h/mL
- AUC(0-t) (male, Sprague-Dawley (SD), heart, M SD rat, Heart): 2880 ng·h/mL
- AUC(0-t) (male, Sprague-Dawley (SD), kidney, M SD rat, Kidney): 32600 ng·h/mL
- Tmax (male, Sprague-Dawley (SD), M SD rat, Bone Marrow): 30 min
- Cmax [12]: 68.9 ng/mL
- Tmax [12]: 30 min
- Cmax [13]: 535 ng/mL
- Tmax [13]: 156 min
- Cmax [14]: 2520 ng/mL
- Tmax [14]: 30 min
- Cmax [15]: 9620 ng/mL
- Tmax [15]: 30 min
- AUC0-inf [15]: 32600 ng·h/mL
- Cmax (male, Sprague-Dawley (SD), M SD rat, Liver): 6340 ng/mL
- AUC(0-t) (male, Sprague-Dawley, adipose, M SD rat, Adipose): 12200 ng·h/mL
- AUC(0-t) (male, Sprague-Dawley, bladder, M SD rat, Bladder): 36200 ng·h/mL
- AUC(0-t) (male, Sprague-Dawley, spleen, M SD rat, Spleen): 25700 ng·h/mL
- AUC(0-t) (male, Sprague-Dawley, testis, M SD rat, Testis): 5090 ng·h/mL
- Cmax [16]: 3900 ng/mL
- Tmax [16]: 30 min
- Cmax [17]: 6820 ng/mL
- Tmax [17]: 33.6 min
- AUC0-inf [17]: 36300 ng·h/mL
- Tmax [18]: 30 min
- AUC0-inf [18]: 8020 ng·h/mL
- Cmax [19]: 6860 ng/mL
- Tmax [19]: 30 min
- Cmax [20]: 318 ng/mL
- Tmax [20]: 480 min
- Cmax [21]: 28900 ng/mL
- Tmax [21]: 30 min
- Cmax (male, M SD rat, Bone Marrow): 4530 ng/mL
- Tmax (male, M SD rat, Liver): 30 min
- Cmax (male, M SD rat, Lung): 4410 ng/mL
- Tmax (male, M SD rat, Lung): 30 min
- Cmax (male, M SD rat, Plasma): 509 ng/mL
- Tmax (male, M SD rat, Plasma): 180 min
- AUC0-inf (male, M SD rat, Plasma): 2680 ng·h/mL
- Cmax (male, M SD rat, Skin): 1460 ng/mL
